According to patent US20240285554A1, “POLYVINYL ALCOHOL COMPOSITIONS AND METHODS OF MAKING AND USING THEM” (Emanate Biomedical, Inc., priority 2023, published 2024):

Columns and labels:
[1] = test system: gram positive bacteria and gram negative bacteria; test: Zone of Inhibition (ZOI) testing; type: cell-based; settings: composition with 0.005%, 0.025%, 0.05%, 0.1%, and 0.15% w/w of CHG
Description: (§1) The CHG concentration of 0.05% w/w was the lowest dose showing strong efficacy against both bacteria and fungus and was therefore selected as the suitable preservative concentration.

C. albicans ATCC 10231 = test: Antimicrobial efficacy testing (modified AATCC 100 test); type: cell-based, Candida albicans; settings: contact time 30 min, study NG17964
Description: as §1

C. tropicalis ATCC 750 [2] = test: as above; type: cell-based, Candida tropicalis
Description: as §1

S. aureus ATCC 6538 = test: as above; type: cell-based, Staphylococcus aureus; settings: for Log10 Reduction Compared to Control / Percent Reduction Compared to Control / Average CFU/carrier: S. aureus ATCC 6538, study NG17598-A1; for Average CFU/carrier: limit of detection
Description: as §1

P. aeruginosa ATCC 9027 = test: as above; type: cell-based, Pseudomonas aeruginosa; settings: for Log10 Reduction Compared to Control / Percent Reduction Compared to Control / Average CFU/carrier: P. aeruginosa ATCC 9027, study NG17598-A1; for Average CFU/carrier: limit of detection
Description: as §1

bacteria and fungus = test: Antimicrobial efficacy, choice of preservative concentration; type: cell-based; settings: selected as the suitable preservative concentration
Description: as §1

C. tropicalis ATCC 750 [3] = test: Antimicrobial efficacy testing (modified AATCC 100 test); type: cell-based, Candida tropicalis; settings: for Average CFU/carrier / Log10 Reduction Compared to Control / Percent Reduction Compared to Control: C. tropicalis ATCC 750, contact time 30 min, study NG17964; for efficacy: tested against Candida albicans and Candida tropicalis
oral pathogenic bacteria = settings: cited from earlier work
[4] = C. tropicalis ATCC 750, CHG Conc 0.05 % w/w, contact time 30 min, study NG17964
[5] = CHG Conc 0.005 % w/w, contact time 30 min
[6] = CHG Conc 0.1 % w/w, contact time 60 min
[7] = CHG Conc 0.1 % w/w, contact time 24 hrs

## N=C(NCCCCCCNC(=N)NC(=N)Nc1ccc(Cl)cc1)NC(=N)Nc1ccc(Cl)cc1.O=C(O)[C@H](O)[C@@H](O)[C@H](O)[C@H](O)CO.O=C(O)[C@H](O)[C@@H](O)[C@H](O)[C@H](O)CO [CHG]
[1]
  effect in Zone of Inhibition (ZOI) testing: showed inhibitory effects
C. albicans ATCC 10231; CHG Conc 0.005 % w/w
  Average CFU/carrier: 1.00E+05 CFU/carrier
  Log10 Reduction Compared to Control: 0.25
  Percent Reduction Compared to Control: 43.52%
C. albicans ATCC 10231; CHG Conc 0.05 % w/w
  Average CFU/carrier: 2.48E+02 CFU/carrier
  Log10 Reduction Compared to Control: 2.86
  Percent Reduction Compared to Control: 99.86%
C. albicans ATCC 10231; CHG Conc 0.1 % w/w
  Average CFU/carrier: 7.50E+00 CFU/carrier
  Log10 Reduction Compared to Control: 4.37
  Percent Reduction Compared to Control: 99.996%
C. tropicalis ATCC 750 [2]; [4]
  Log10 Reduction Compared to Control: >4.46
  Percent Reduction Compared to Control: >99.997%
C. tropicalis ATCC 750 [2]; C. tropicalis ATCC 750, CHG Conc 0.05 % w/w, contact time 30 min, study NG17964, limit of detection
  Average CFU/carrier: <5.00E+00^1 CFU/carrier
C. tropicalis ATCC 750 [2]; tested against Candida albicans and Candida tropicalis, CHG 0.05% w/w
  efficacy: 99.997%
S. aureus ATCC 6538; [5]
  Log10 Reduction Compared to Control: >4.40
  Percent Reduction Compared to Control: >99.996%
  Average CFU/carrier: <5.00E+00^1 CFU/carrier
S. aureus ATCC 6538; [6]
  Log10 Reduction Compared to Control: >4.57
  Percent Reduction Compared to Control: >99.997%
  Average CFU/carrier: <5.00E+00^1 CFU/carrier
S. aureus ATCC 6538; [7]
  Log10 Reduction Compared to Control: >4.58
  Percent Reduction Compared to Control: >99.997%
  Average CFU/carrier: <5.00E+00^1 CFU/carrier
S. aureus ATCC 6538; Staphylococcus aureus, CHG 0.05% w/w, after 30 min contact time
  reduction of the concentration of microorganisms: more than 99.99%
S. aureus ATCC 6538; Staphylococcus aureus, CHG 0.1% w/w, after 60 min and 24 hour contact time
  reduction of the concentration of the microorganisms: more than 99.99%
P. aeruginosa ATCC 9027; [5]
  Log10 Reduction Compared to Control: >4.43
  Percent Reduction Compared to Control: >99.996%
  Average CFU/carrier: <5.00E+00^1 CFU/carrier
P. aeruginosa ATCC 9027; [6]
  Log10 Reduction Compared to Control: >4.53
  Percent Reduction Compared to Control: >99.996%
  Average CFU/carrier: <5.00E+00^1 CFU/carrier
P. aeruginosa ATCC 9027; [7]
  Log10 Reduction Compared to Control: >4.70
  Percent Reduction Compared to Control: >99.998%
  Average CFU/carrier: <5.00E+00^1 CFU/carrier
P. aeruginosa ATCC 9027; Pseudomonas aeruginosa, CHG 0.05% w/w, after 30 min contact time
  reduction of the concentration of microorganisms: more than 99.99%
P. aeruginosa ATCC 9027; Pseudomonas aeruginosa, CHG 0.1% w/w, after 60 min and 24 hour contact time
  reduction of the concentration of the microorganisms: more than 99.99%
Bacteria and fungus
  lowest dose showing strong efficacy against both bacteria and fungus: 0.05 % w/w
C. tropicalis ATCC 750 [3]; CHG Conc 0.005 % w/w
  Average CFU/carrier: 2.70E+04 CFU/carrier
  Log10 Reduction Compared to Control: 0.73
  Percent Reduction Compared to Control: 81.38%
C. tropicalis ATCC 750 [3]; CHG Conc 0.1 % w/w
  Log10 Reduction Compared to Control: >4.46
  Percent Reduction Compared to Control: >99.997%
C. tropicalis ATCC 750 [3]; CHG Conc 0.1 % w/w, limit of detection
  Average CFU/carrier: <5.00E+00^1 CFU/carrier
C. tropicalis ATCC 750 [3]; CHG 0.005% w/w
  efficacy: 81.38%
C. tropicalis ATCC 750 [3]; CHG 0.1% w/w
  efficacy: 99.997%

## [H]/N=C(\N/C(=N/[H])NCCCCCCNC(=N)NC(=N)Nc1ccc(Cl)cc1)Nc1ccc(Cl)cc1 [Chlorhexidine, chlorhexidine]
Oral pathogenic bacteria; against oral pathogenic bacteria
  MIC: 0.0125 % w/v
Oral pathogenic bacteria; at 10 minutes
  MBC: 0.5 % w/v
